Results on six molecules are retold here after ChEMBL document CHEMBL4715914, “Chemical validation of a druggable site on Hsp27/HSPB1 using in silico solvent mapping and biophysical methods” (Bioorg Med Chem, 2021).

Assay [1] in a line: Binding affinity to HSP27 C59A mutant (79 to 176 residues) (unknown origin) expressed in Escherichia coli BL21 (DE3) cells by HSQC NMR analysis. Details: species or system Homo sapiens. As to conditions: read-out: Kd(app).
Assay [2] can be described thus: Binding affinity to HSP27 I56A mutant (79 to 176 residues) (unknown origin) expressed in Escherichia coli BL21 (DE3) cells by HSQC NMR analysis. Details: species or system Homo sapiens. As to conditions: read-out: Kd(app).
Assay [3] can be described thus: Binding affinity to HSP27 T61L mutant (79 to 176 residues) (unknown origin) expressed in Escherichia coli BL21 (DE3) cells by HSQC NMR analysis. Details: species or system Homo sapiens. The settings on record: read-out: Kd(app).
Assay [4] in a line: Binding affinity to HSP27 L21A mutant (79 to 176 residues) (unknown origin) expressed in Escherichia coli BL21 (DE3) cells by HSQC NMR analysis. Details: species or system Homo sapiens. The settings on record: read-out: Kd(app).
Assay [5] in a line: Binding affinity to HSP27 H46A mutant (79 to 176 residues) (unknown origin) expressed in Escherichia coli BL21 (DE3) cells by HSQC NMR analysis. Also noted: species or system Homo sapiens. The settings on record: read-out: Kd(app).
Assay [6] in a line: Binding affinity to HSP27 V23A mutant (79 to 176 residues) (unknown origin) expressed in Escherichia coli BL21 (DE3) cells by HSQC NMR analysis. The settings on record: read-out: Kd(app). Also noted: species or system Homo sapiens.
In assay [7] the target is Heat shock protein beta-1 (Homo sapiens, UniProt P04792). The assay can be described thus: Binding affinity to HSP27 (79 to 176 residues) (unknown origin) expressed in Escherichia coli BL21 (DE3) cells by HSQC NMR analysis. The settings on record: for Kd: read-out: Kd(app).

The source made the active and inactive calls. The calls are words filed in the database; no cut-off is given here. Some results are limits rather than exact numbers.

Sequence of Heat shock protein beta-1 (P04792 whole entry, the tested form may be a part): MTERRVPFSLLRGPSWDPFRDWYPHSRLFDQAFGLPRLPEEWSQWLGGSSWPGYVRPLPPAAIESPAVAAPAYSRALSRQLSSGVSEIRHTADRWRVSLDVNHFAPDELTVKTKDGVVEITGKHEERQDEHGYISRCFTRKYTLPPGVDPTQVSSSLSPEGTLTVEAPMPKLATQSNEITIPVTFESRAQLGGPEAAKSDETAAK

`O=[N+]([O-])c1ccc(Oc2ccc(F)cc2F)c([N+](=O)[O-])c1`: the Kd in assay [1] was determined as 67 µM; in assay [2] it was 63 µM; in assay [3], 32 µM; in assay [4] it was 42 µM; in assay [5], 240 µM; in assay [6], 69 µM. On to `Nc1cccnc1Oc1ccc(F)cc1F`, for which the Kd in assay [7] is more than 1000 µM. For the molecule `O=C(Oc1ccc(F)cc1F)c1ccc([N+](=O)[O-])cc1`, the “Kd(app)” value in assay [7] was “inactive”.

`O=[N+]([O-])c1cccnc1Oc1ccc(I)cc1`: the “Kd(app)” value in assay [7] was “inactive”. As for `O=[N+]([O-])c1cc(Oc2ccc(F)cc2F)ccc1Oc1ccc(F)cc1F`, the “Kd(app)” value in assay [7] was “inactive”. `O=[N+]([O-])c1cccnc1Oc1ccc(F)cc1F`: the Kd in assay [7] is 177 µM.
